Measurements from article PMC5511861, “DS16570511 is a small-molecule inhibitor of the mitochondrial calcium uniporter” (Cell Death Discovery, 2017).
One block for each molecule: values may come before it.

Tests used:
Hela cells = test system: Hela cells; parameters: method as in PMID 17471180; settings: cited from earlier work
[1] = test system: membrane potential of pig heart mitochondria; assay: Mitochondrial membrane potential assay (JC-10) in pig heart mitochondria; format: biochemical; settings: JC-10, 5 min incubation
Source text: Next we analyzed the mechanism of action of DS16570511. The previous studies implicated two possible inhibitory mechanisms for the mitochondrial Ca^2+ uptake: (1) direct blockade of the calcium uniporter and (2) disruption of the membrane potential.[20],[21] Mitochondrial Ca^2+ uptake is mediated by electrical potential across the mitochondrial inner membrane, which is generated by the oxidative phosphorylation system. […] To examine effects on the mitochondrial membrane potential, fluorescent indicator JC-10 was used in mitochondria from pig heart.
(a) Effect of FCCP on Ca^2+ uptake of pig heart mitochondria. […] Relative membrane potential 0 or 100% is defined as value of 1 μM FCCP-treated mitochondria or vehicle-treated mitochondria, respectively. Data are mean with S.E.M. from three (a) or four (b) independent samples.
Pig heart mitochondria were prepared as described above and suspended in the swelling buffer containing 1 μM JC-10. The protein concentration of the solution was 5 mg/ml. Five minutes after incubation of the mitochondria with DS16570511 at room temperature, fluorescence intensities were measured by a FlexStation 3 (Molecular Devices, LLC, Sunnyvale, CA, USA) using the green channel (excitation/emission wavelength: 485/538 nm) or the red channel (excitation/emission wavelength: 485/612 nm).

[2] = molecular target: T1, mitochondrial calcium uniporter (Homo sapiens, UniProt Q8NE86); assay: Ca2+ uptake of isolated mitochondria from HEK293A cells (aequorin luminescence); format: biochemical; parameters: isolated mitochondria from HEK293A cells were used; endogenous in cells; host or cells: mitochondria isolated from HEK293A cells stably expressing mitochondria-targeted aequorin
T1 sequence (Q8NE86 51-351): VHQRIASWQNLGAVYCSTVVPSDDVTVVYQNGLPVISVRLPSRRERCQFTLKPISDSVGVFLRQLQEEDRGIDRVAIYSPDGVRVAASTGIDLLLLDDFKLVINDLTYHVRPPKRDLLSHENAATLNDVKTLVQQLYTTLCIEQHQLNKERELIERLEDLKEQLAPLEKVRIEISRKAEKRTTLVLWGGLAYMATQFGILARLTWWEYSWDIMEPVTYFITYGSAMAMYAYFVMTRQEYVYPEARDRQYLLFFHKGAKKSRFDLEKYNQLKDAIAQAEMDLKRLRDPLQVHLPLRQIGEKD
T1 sequence (Q9H4I9 48-107 partner limits assumed): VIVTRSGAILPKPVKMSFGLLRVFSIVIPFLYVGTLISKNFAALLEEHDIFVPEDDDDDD
Experimental: Mitochondrial Ca^2+ uptake activity is regulated by cytosolic protein kinase signaling,[19] raising the possibility that HTS hits contained indirect inhibitors of the uniporter, such as inhibitors of cytosolic signaling. To examine the direct inhibitory effect of the compounds on the mitochondrial Ca^2+ uptake, isolated mitochondria from HEK293A cells were used. Ca^2+ uptake of the isolated mitochondria was observed as a rapid increase in the luminescence level after application of 100 μM Ca^2+ (Figure 2a).
Figure 2 DS16570511 inhibits Ca^2+ uptake in isolated mitochondria from HEK293A cells. (a) Representative raw data of Ca^2+ uptake in isolated mitochondria. (b) Effect of DS16570511 or Ru360 on mitochondrial Ca^2+ uptake. The area under the curve of temporal aequorin activities is used for calculation of inhibitory activities. Inhibition 0 or 100% is defined as a value of […], respectively. Data are mean with S.E.M. from three independent samples.
To monitor Ca^2+ uptake activity of isolated mitochondria, mitochondria were prepared from the cells (1×10^8 cells) stably expressing mitochondria-targeted aequorin by using a mitochondria isolation kit. […] The luminescence levels were detected as described above.

cultured myocytes = test system: cultured myocytes; parameters: method as in PMID 22425903; settings: cited from earlier work
[3] = test system: recombinant MCU multimers; parameters: method as in PMID 26285678; settings: lipid bilayer; cited from earlier work
[4] = test system: Ca2+ uptake of rat heart mitochondria; assay: Ca2+ uptake assay using isolated rat heart mitochondria (atomic absorbance spectrometer); format: biochemical; settings: 100 μM CaCl2; read-out: IC50, inhibition of Ca2+ uptake of rat heart mitochondria
Experimental: (§1) We then asked whether DS16570511 inhibits Ca^2+ uptake in isolated mitochondria from animal heart. An atomic absorbance spectrometer-based detection method was employed to analyze intramitochondrial Ca^2+ levels. We prepared freshly isolated mitochondria from pig heart, and the mitochondria were incubated with 100 μM CaCl2.
(§2) Figure 3 DS16570511 inhibits Ca^2+ uptake in isolated heart mitochondria. (a) Effect of RuR on Ca^2+ uptake of pig heart mitochondria. […] Data are mean with S.E.M. from three independent samples. (b) Inhibition rate of RuR or DS16570511 on Ca^2+ uptake of pig heart mitochondria. Inhibition 0 or 100% is defined as a value of Ca^2+-untreated mitochondria or Ca^2+-treated mitochondria, respectively. Data are mean with S.E.M. from three independent samples. (c) Inhibition rate of RuR or DS16570511 on Ca^2+ uptake of rat heart mitochondria. Data are mean with S.E.M./variation from three or two independent samples for DS16570511 or RuR, respectively.
Mitochondria were isolated by using the mitochondria isolation kit and then dissolved in the swelling buffer. The protein concentration of the mitochondrial solution was 5 mg/ml. […] The solution was then diluted by water, and Ca^2+ concentration of the solution was measured by atomic absorbance spectrometer (Hitachi High-Technologies Corporation, Z-2710, Tokyo, Japan).

[5] = test system: Ca2+ uptake of pig heart mitochondria; assay: Ca2+ uptake assay using isolated pig heart mitochondria (atomic absorbance spectrometer); format: biochemical; settings: 100 μM CaCl2
Experimental: as §1
as §2, with “(a)” for “Figure 3 DS16570511 inhibits Ca^2+ uptake in isolated heart mitochondria. (a)”
Mitochondria were isolated by using the mitochondria isolation kit and then dissolved in the swelling buffer. The protein concentration of the mitochondrial solution was 5 mg/ml. Thirty minutes after application of CaCl2 (final concentration of 100 μM) to the solution, the mitochondria were collected by centrifugation (3000 g) at 4 °C. The pellets were resuspended in the swelling buffer containing 1 μM RuR. After collection of the mitochondria by centrifugation (3000 g), the pellets were dried and dissolved by 40 μl of sulfuric acid at 95 °C.

SMILES: N=C(N)SCCc1ccc(OCc2ccc([N+](=O)[O-])cc2)cc1 [KB-R7943]
effect on agonist-induced mitochondrial Ca2+ influx (Hela cells): inhibit

SMILES: N#CC(C#N)=NNc1ccc(OC(F)(F)F)cc1 [FCCP, carbonyl cyanide-p-trifluoromethoxyphenylhydrazone]
effect on mitochondrial membrane potential [1]: disruption of the potential in a dose-dependent manner

SMILES: N.N.N.N.N.N.N.N.O=C[O-].O=C[O-].[O-2].[Ru+3].[Ru+4] [Ru360, Ruthenium 360, reference compound]
IC50 [2]: 20 nM
effect on mitochondrial membrane potential [1]: no effect

SMILES: CS(=O)(=O)O.CS(=O)(=O)O.O=S1(=O)CCN(Cc2cc(NCC3CCOCC3)c3[nH]c(-c4ccccc4)cc3c2)CC1 [NecroX-5]
effect on Ca2+ accumulation (cultured myocytes): attenuate

IC50 [4]: 100 nM
IC50 ([5]; read-out: IC50, inhibition of Ca2+ uptake of pig heart mitochondria): 30 nM
SMILES: N.N.N.N.N.N.N.N.N.N.N.N.N.N.[Cl-].[Cl-].[Cl-].[Cl-].[Cl-].[Cl-].[O-2].[O-2].[Ru+3].[Ru+3].[Ru+4] [RuR, Ruthenium Red]
effect on Ca2+ channel activity mediated by recombinant MCU multimers [3]: inhibited
effect on Ca2+ uptake activity of isolated pig heart mitochondria (in words) [5]: fully blocked
